Data from patent US20240082212A1, “USE OF MDMA FOR TREATMENT OF STRESS-RELATED DISORDERS” (priority 2022, published 2024).

How the values were obtained:
[1] = target: T1, Adrenergic α2A (Homo sapiens, UniProt P08913); assay: Eurofins Panlabs radioligand binding panel, adrenergic α2A; conditions: 10 uM
T1 sequence (P08913 1-465): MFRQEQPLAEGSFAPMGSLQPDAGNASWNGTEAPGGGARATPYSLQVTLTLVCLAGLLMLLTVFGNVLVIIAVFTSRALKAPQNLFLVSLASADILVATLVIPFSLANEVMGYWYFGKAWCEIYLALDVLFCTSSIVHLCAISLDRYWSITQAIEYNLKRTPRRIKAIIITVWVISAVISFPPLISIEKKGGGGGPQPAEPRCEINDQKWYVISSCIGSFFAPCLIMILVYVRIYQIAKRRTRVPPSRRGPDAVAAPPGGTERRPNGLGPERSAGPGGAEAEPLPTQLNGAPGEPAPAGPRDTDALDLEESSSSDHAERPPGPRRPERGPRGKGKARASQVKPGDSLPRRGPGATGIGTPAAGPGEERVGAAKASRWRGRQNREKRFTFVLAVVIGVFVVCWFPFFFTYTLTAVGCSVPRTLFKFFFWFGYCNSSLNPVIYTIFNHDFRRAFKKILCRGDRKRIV
Method: Each of the compounds was evaluated for binding to 87 different targets as part of a panel (Eurofins Panlabs, Taiwan, China). Each compound was tested at a single concentration of […]. The panel included mostly G-protein-couple receptors, ion channels, enzymes, transporters and nuclear receptors, expressed in the central nervous system, cardiovascular, respiratory, gastrointestinal and renal systems. A limited number of targets were of pig, rat or guinea pig origin. Targets were expressed in human recombinant cells lines, rat brain or spinal cord, guinea pig brain or pig heart. Methods were adapted from the scientific literature to maximize reliability and reproducibility. Reference standards were run as an integral part of each assay to ensure validity of the results obtained (available online at the eurofins website for the safety screen 87 panel).

[2] = target: T2, Adrenergic α2B (Homo sapiens, UniProt P18089); assay: Eurofins Panlabs radioligand binding panel, adrenergic α2B; conditions: 10 uM
T2 sequence (P18089 1-450): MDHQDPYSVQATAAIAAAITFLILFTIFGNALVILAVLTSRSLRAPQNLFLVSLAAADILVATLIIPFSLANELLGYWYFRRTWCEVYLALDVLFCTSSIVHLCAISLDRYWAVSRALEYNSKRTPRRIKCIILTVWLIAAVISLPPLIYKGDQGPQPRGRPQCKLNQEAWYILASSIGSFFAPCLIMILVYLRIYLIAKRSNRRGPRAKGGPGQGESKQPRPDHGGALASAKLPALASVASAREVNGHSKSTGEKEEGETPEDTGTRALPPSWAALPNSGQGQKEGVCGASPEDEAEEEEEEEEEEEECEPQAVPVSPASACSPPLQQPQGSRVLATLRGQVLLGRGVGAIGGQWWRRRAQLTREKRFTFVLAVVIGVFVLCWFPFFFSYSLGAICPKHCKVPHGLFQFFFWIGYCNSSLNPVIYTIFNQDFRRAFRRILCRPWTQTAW

[3] = target: T3, Serotonin 5-HT2C (Homo sapiens, UniProt P28335); assay: biochemical; format: binding
T3 sequence (P28335 33-458): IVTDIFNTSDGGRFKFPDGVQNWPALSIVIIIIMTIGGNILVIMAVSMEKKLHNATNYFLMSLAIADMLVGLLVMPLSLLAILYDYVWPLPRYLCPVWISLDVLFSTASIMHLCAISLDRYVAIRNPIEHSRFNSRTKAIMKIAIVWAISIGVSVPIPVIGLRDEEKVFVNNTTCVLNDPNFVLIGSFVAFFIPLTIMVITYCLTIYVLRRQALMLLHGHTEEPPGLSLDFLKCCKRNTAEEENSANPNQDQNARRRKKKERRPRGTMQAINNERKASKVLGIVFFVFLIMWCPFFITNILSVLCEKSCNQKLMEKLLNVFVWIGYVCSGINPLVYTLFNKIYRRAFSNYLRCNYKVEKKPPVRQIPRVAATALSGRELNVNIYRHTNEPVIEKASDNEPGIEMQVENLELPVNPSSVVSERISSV

[4] = test system: C57BL/6 mice; assay: Mouse locomotor activity over 11 days after single administration
Method: Methods. Male C57BL/6 mice (n=10-12 per group) from Jackson Laboratories, US (10-12 weeks of age), were assigned randomly to treatment groups. The animals were acclimated to the laboratory for at least five days prior to experimental manipulation. […] Standard rodent chow and water were available ad libitum, except during experimental test sessions. Animals were maintained in a controlled environment, and temperature and humidity were recorded continuously in the holding room.
The animal procedures were conducted according to established and approved protocols. On each experimental day, animals were acclimated to a procedure room adjacent to the testing room for at least 30 minutes prior to the start of experimental sessions. To evaluate acute compound effects on activity, an animal was administered a single dose of test article 30 minutes prior to individual placement in a novel test chamber on experimental day 1. Activity was detected using photo beams (e.g., 16×16 beams with a space of 2 cm between beams, Med Associates®) and recorded using the Activity Monitor™ program designed by Med Associates®. The primary endpoint was total distance traveled (cm), as a measure of locomotion. Additional activity measures included total ambulatory counts, ambulatory time (sec), vertical counts and vertical time (sec). All endpoints were recorded and analyzed over a 30-minute test period. At the end of the test session, each animal was returned to its home cage. To evaluate potential lasting effects on activity following single administration of compounds, each animal was re-evaluated in the same test chamber on experimental days 2, 6, and 11, without additional test article administration.
Animals were randomly assigned to treatment groups and testing was conducted in a manner counterbalancing treatment groups. Activity measures were analyzed statistically using 2-way analysis of variance (ANOVA) with experimental day as the within-subjects factor and treatment as the between-subjects factor. Following a significant overall ANOVA (p<0.05), post hoc comparisons between test article and vehicle conditions were made using Fisher's Least Significant Difference (LSD, p<0.05).

[5] = test system: rats; conditions: 4 hourly SC injections at 10 mg/kg/injection (Biezonski et al., 2013); cited from earlier work
[6] = rats; 1 week after 4 hourly SC injections at 10 mg/kg/injection (Biezonski et al., 2013); cited from earlier work
[7] = test system: PTSD participants; conditions: cited from earlier work
[8] = racemic MDMA 7.8 mg/kg IP, Day 1, persisted out to Day 2, vs vehicle
[9] = racemic MDMA 7.8 mg/kg IP, any day of testing (Days 1, 2, 6, 11)
[10] = R-MDMA all 3 dose levels (10, 17, 30 mg/kg IP), only on Day 1

**Q.** What does the source list for `C[C@H](N)Cc1ccc2c(c1)OCO2` [S-MDA, S(+)-MDA]?
**A.** % inhibition of binding or activity [1]: 63%; % inhibition of binding or activity [2]: 51%

**Q.** Which results are given for `CNC(C)Cc1ccc2c(c1)OCO2` (racemic) [Racemic MDMA, 3,4-methylenedioxymethamphetamine]?
**A.** % inhibition of binding or activity ([3]; 10 µM): 87%; total distance traveled ([4]; racemic MDMA 7.8 mg/kg IP, Day 1, persisted out to Day 2, 30-minute test, vs vehicle): significantly increased; total ambulatory counts [4, 8]: increased; total ambulatory time [4, 8]: increased; total vertical counts [4, 9]: did not alter; total vertical time [4, 9]: did not alter; body temperature [5]: significant increase in body temperature; frontal cortical and striatal monoamine concentrations [6]: significant reductions in frontal cortical 5-HT and 5-HIAA and striatal DOPAC and HVA concentrations; vital signs (systolic and diastolic blood pressure and heart rate) ([7]; MDMA group, Phase 3 clinical trial (Mitchell et al., 2021)): transient increase in vital signs; efficacy for PTSD ([7]; Phase 3 clinical trial (Mitchell et al., 2021)): efficacy; transient increase in body temperature to ([7]; two participants in the MDMA group): 38.1 °C

**Q.** For `CNC(C)Cc1ccc2c(c1)OCO2` (single isomer, unassigned) [R-MDMA, R(−)-3,4-methylenedioxymethamphetamine], which inhibition at 10 µM ([3]; read-out: % inhibition of binding or activity) is on record?
**A.** 78%

**Q.** And the total ambulatory time ([4]; R-MDMA 2 highest doses (17, 30 mg/kg IP), only on Day 1)?
**A.** significantly increased

**Q.** And the total distance traveled ([4]; R-MDMA 10, 17, 30 mg/kg IP, any dose, any day of testing)?
**A.** no significant increase

**Q.** What about the total vertical counts [4, 10] of the same compound?
**A.** significantly reduced

**Q.** What about the total vertical time [4, 10] of the same compound?
**A.** significantly reduced

**Q.** And the total ambulatory counts ([4]; R-MDMA highest dose (30 mg/kg IP), only on Day 1)?
**A.** significantly increased

**Q.** And the total vertical time ([4]; R-MDMA lowest dose (10 mg/kg IP), day 2 only)?
**A.** significant increase
